# Literature values as cited in patent US20020064550A1, “Edible candy compositions and methods of using same” (AkPharma, Inc., priority 2000, published 2002).
# Like-named read-outs stand apart in the source and are kept apart here.
# How the values were obtained:
# dental caries [1] = details: sugar-content diets of animals
# dental caries [2] = details: human children
# [3] = system: symptoms of bladder irritants; details: 200 reported patients; calcium glycerophosphate taken with foods; 79.4% without calcium glycerophosphate
substance,measurement,setting,value
"1,2,3-propanetriol, mono(dihydrogen phosphate) calcium salt (1:1) [calcium glycerophosphate]",dental caries reduction,dental caries [1],confirm dental caries reduction
same,dental caries reduction,dental caries [2],fail to confirm same
same,over-all symptoms of bladder irritants,[3],14.6%
